In patent publication US7504203B2 (priority 2002, dated 2009):

Biological target: GST-fused SCDH enzyme expressed from the standard strain cDNA (Pyricularia oryzae, UniProt P56221)
Format: biochemical, rice blast fungus (Pyricularia oryzae)

Chain of GST-fused SCDH enzyme expressed from the standard strain cDNA (P56221 whole entry, looked up, the tested form may be a part): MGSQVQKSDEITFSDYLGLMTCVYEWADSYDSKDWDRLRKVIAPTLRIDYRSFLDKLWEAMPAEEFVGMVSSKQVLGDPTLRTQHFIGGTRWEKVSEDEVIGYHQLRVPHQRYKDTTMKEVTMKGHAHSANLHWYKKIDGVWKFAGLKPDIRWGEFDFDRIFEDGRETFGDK

CCC1(C(=O)N[C@H](C)c2ccc(Cl)cc2)C(C)C1(Cl)Cl (stereo partly shown) [carpropamid]
drug sensitivity compared with SCDH enzyme in crude enzyme solution from rice blast fungus: exhibited the same drug sensitivity
